The term pEC50 denotes the negative decadic logarithm of the EC50, by convention in mol/L. The low end stands for a large EC50, the high end for a small EC50.

EC50 data for 17 molecules are collected here from BindingDB's records for doi:10.7270/Q2M32T6M (Vanderbilt Screening Center for GPCRs, Ion Channels and …, 2009).

pEC50: −log10 of the molar value.

In one experiment the target is T1, Solute carrier family 12 member 5 (Homo sapiens, UniProt Q9H2X9).
T1 sequence (Q9H2X9 whole entry): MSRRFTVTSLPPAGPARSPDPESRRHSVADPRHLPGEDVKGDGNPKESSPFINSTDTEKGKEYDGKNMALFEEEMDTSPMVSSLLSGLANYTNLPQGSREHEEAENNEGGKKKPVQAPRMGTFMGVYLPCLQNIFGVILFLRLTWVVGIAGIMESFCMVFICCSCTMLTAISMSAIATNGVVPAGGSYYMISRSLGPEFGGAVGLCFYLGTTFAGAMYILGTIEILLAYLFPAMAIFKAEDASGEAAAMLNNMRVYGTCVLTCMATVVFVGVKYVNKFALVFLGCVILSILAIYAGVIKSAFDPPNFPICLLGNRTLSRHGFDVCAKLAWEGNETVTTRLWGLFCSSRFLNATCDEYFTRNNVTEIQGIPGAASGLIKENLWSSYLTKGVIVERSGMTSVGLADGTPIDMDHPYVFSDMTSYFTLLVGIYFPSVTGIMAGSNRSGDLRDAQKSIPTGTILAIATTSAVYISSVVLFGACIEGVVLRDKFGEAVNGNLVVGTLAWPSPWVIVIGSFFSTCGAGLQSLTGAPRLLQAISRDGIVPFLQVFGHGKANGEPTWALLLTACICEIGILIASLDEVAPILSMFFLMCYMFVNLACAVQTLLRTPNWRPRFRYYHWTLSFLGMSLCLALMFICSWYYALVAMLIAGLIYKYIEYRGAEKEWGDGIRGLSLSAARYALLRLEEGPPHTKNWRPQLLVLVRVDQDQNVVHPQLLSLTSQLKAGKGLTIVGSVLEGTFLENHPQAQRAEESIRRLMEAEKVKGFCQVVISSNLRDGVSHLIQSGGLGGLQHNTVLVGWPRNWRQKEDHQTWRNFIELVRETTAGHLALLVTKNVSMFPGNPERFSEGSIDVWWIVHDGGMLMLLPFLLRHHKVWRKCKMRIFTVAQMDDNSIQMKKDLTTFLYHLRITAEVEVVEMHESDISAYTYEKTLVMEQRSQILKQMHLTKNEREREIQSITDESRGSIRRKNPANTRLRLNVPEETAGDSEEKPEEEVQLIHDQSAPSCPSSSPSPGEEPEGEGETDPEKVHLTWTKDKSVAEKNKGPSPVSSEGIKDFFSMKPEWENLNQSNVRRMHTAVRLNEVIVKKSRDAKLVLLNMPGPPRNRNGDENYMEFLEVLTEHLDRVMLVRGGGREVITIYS
Nature of the experiment: KCC2 modulator potency by thallium flux, dose response, cell-based, HEK293 KCC2, FluoZin-2 fluorescence (AID 1736).
Settings: not given
`COc1ccc(N(CC(=O)Nc2cccc(C)c2C)S(=O)(=O)c2c(C)n[nH]c2C)cc1` [N-(2,3-dimethylphenyl)-2-[(3,5-dimethyl-1H-pyrazol-4-yl)sulfonyl-(4-methoxyphenyl)amino]ethanamide]: the negative-log EC50 (pEC50) is 4.41.
As for `CC(=NNC(=O)c1ccc(Cl)c(Cl)c1)c1ccc(Br)s1` [N-[1-(5-bromo-2-thiophenyl)ethylideneamino]-3,4-dichlorobenzamide], the negative logarithm of the EC50 (pEC50) was 5.84.
For the molecule `CC(C)(C)NC(=O)C(c1ccncc1)N(Cc1ccco1)C(=O)c1ccc(-c2ccccc2)[nH]1` (configuration not stated) [N-[2-(tert-butylamino)-2-oxo-1-pyridin-4-ylethyl]-N-(furan-2-ylmethyl)-5-phenyl-1H-pyrrole-2-carboxamide], the negative logarithm of the EC50 (pEC50) is 4.72.
`CC(C)(C)NC(=O)C(c1cccs1)N(CC1CCCO1)C(=O)c1ccc(-c2ccccc2)[nH]1` (configuration not stated) [N-[2-(tert-butylamino)-2-oxo-1-thiophen-2-ylethyl]-N-(2-oxolanylmethyl)-5-phenyl-1H-pyrrole-2-carboxamide] gave a pEC50 of 5.64.
In turn, `O=C(NN1C(=O)/C(=C/c2nc3ccccc3[nH]2)SC1=S)c1ccccc1Cl` [N-{5-[1-(1H-Benzoimidazol-2-yl)-meth-(Z)-ylidene]-4-oxo-2-thioxo-thiazolidin-3-yl}-2-chloro-benzamide] gave a negative logarithm of the EC50 (pEC50) of 6.89.
Same read-out and setting: with `c1ccc(-c2nnc(Sc3ncnc4c3cnn4-c3ccccc3)[nH]2)cc1` [SMR000019566] the figure was 5.17.
With `CCOC(=O)c1sc(Nc2nc3c(OC)cccc3s2)nc1C` [SMR000027213], the pEC50 was 4.63.
As to `O=C(CSc1nccc(=O)[nH]1)N1CCc2ccccc2C1` [SMR000124078], the negative-log EC50 (pEC50) was 4.77.
With `CC(C)NC(=S)NNC1=c2cc(C(C)C)ccc2=NC1=O` [SMR000242097], the negative logarithm of the EC50 (pEC50) is 5.23.
Turning to `CC(=NNC(=S)Nc1c(C)cccc1C)c1cc2ccccc2o1` [SMR000260555], the negative-log EC50 (pEC50) was 5.55.
`Cc1nc(SCc2ccc(F)cc2)c([N+](=O)[O-])[nH]1` [SMR000271028] gave a negative-log EC50 (pEC50) of 5.33.
As to `Cc1ccc(C2=CSC3=NNC4(CCCCC4)NN23)cc1` [SMR000306481], the negative logarithm of the EC50 (pEC50) is 5.65.
As for `CN(C)S(=O)(=O)c1ccc(Cl)c(C(=O)Nc2nc3ccccc3[nH]2)c1` [SMR000370637], the pEC50 was 5.34.
Same read-out and setting: next, `Oc1c(Br)cc(Br)cc1C=NNC(=S)N[C@H]1CC2C=CC1C2` (some centres not stated) [SMR000455893]: 4.90.

Still in this experiment, the particulars now being: inactive by the depositor's call.
Molecule `CCOc1ccc(C(C(=O)NC2CCCC2)N(CCCO)C(=O)c2ccc(-c3ccccc3)[nH]2)cc1` (configuration not stated) [N-[2-(cyclopentylamino)-1-(4-ethoxyphenyl)-2-oxoethyl]-N-(3-hydroxypropyl)-5-phenyl-1H-pyrrole-2-carboxamide] showed a pEC50 of 3.07.
With `O=c1c2ccccc2[nH]c(=S)n1CCN1CCC(=C(c2ccc(F)cc2)c2ccc(F)cc2)CC1` [SMR000058550], the negative-log EC50 (pEC50) was 3.74.
`O=C(/C=C/c1cccs1)Nc1scc(-c2ccccc2)c1C(=O)O` [SMR000364116]: the pEC50 is 4.54.
